Paper PMC3604699 (Biochemistry, 2011)

Molecular target: sortase A (SrtA) (Staphylococcus aureus, UniProt Q2FV99)
Test: HPLC transpeptidation assay, time-dependent inactivation kinetics
Assay type: biochemical
Conditions: read-out: KI

Sequence of sortase A (SrtA) (Q2FV99 25-206): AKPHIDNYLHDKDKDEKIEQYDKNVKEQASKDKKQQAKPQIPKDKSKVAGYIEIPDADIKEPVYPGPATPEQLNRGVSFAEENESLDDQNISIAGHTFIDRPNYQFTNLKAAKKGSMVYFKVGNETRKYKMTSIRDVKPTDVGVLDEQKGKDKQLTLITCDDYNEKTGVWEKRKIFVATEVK

`OCl` [NaOCl] showed a KI (inactivation) of 11.8 ± 3.1 mM.
